Assay results as given in ChEMBL document CHEMBL4251595, “Green approach for the synthesis of thiophenyl pyrazoles and isoxazoles by adopting 1,3-dipolar cycloaddition methodology and their antimicrobial activity” (2018).
Values after ≈ are worked out from the molar mass of the structure shown. Active and inactive are the calls of the source. The rule behind the calls is not given here.

Assays:
Format in all cases: functional
Aspergillus niger [1] = assay: Antifungal activity against Aspergillus niger assessed as zone of inhibition at 50 ug/well after 48 hrs by agar well diffusion method; conditions: for zone of inhibition at 50 µg/disc: read-out: DIZ
Aspergillus niger [2] = assay: Antifungal activity against Aspergillus niger assessed as zone of inhibition at 75 ug/well after 48 hrs by agar well diffusion method; conditions: for zone of inhibition at 75 µg/disc: read-out: DIZ
Aspergillus niger [3] = assay: Antifungal activity against Aspergillus niger assessed as zone of inhibition at 100 ug/well after 48 hrs by agar well diffusion method; conditions: for zone of inhibition at 100 µg/disc: read-out: DIZ
Penicillium chrysogenum [4] = assay: Antifungal activity against Penicillium chrysogenum assessed as zone of inhibition at 50 ug/well after 48 hrs by agar well diffusion method; conditions: for zone of inhibition at 50 µg/disc: read-out: DIZ
Penicillium chrysogenum [5] = assay: Antifungal activity against Penicillium chrysogenum assessed as zone of inhibition at 75 ug/well after 48 hrs by agar well diffusion method; conditions: for zone of inhibition at 75 µg/disc: read-out: DIZ
Penicillium chrysogenum [6] = assay: Antifungal activity against Penicillium chrysogenum assessed as zone of inhibition at 100 ug/well after 48 hrs by agar well diffusion method; conditions: for zone of inhibition at 100 µg/disc: read-out: DIZ
Aspergillus niger [7] = assay: Antifungal activity against Aspergillus niger after 48 hrs by broth dilution test
Penicillium chrysogenum [8] = assay: Antifungal activity against Penicillium chrysogenum after 48 hrs by broth dilution test
Staphylococcus aureus [9] = assay: Antimicrobial activity against Staphylococcus aureus assessed as zone of inhibition at 50 ug/well after 24 hrs by agar well diffusion method; conditions: for zone of inhibition at 50 µg/disc: read-out: DIZ
Staphylococcus aureus [10] = assay: Antimicrobial activity against Staphylococcus aureus assessed as zone of inhibition at 75 ug/well after 24 hrs by agar well diffusion method; conditions: for zone of inhibition at 75 µg/disc: read-out: DIZ
Staphylococcus aureus [11] = assay: Antimicrobial activity against Staphylococcus aureus assessed as zone of inhibition at 100 ug/well after 24 hrs by agar well diffusion method; conditions: for zone of inhibition at 100 µg/disc: read-out: DIZ
Bacillus subtilis [12] = assay: Antimicrobial activity against Bacillus subtilis assessed as zone of inhibition at 50 ug/well after 24 hrs by agar well diffusion method; conditions: for zone of inhibition at 50 µg/disc: read-out: DIZ
Bacillus subtilis [13] = assay: Antimicrobial activity against Bacillus subtilis assessed as zone of inhibition at 75 ug/well after 24 hrs by agar well diffusion method; conditions: for zone of inhibition at 75 µg/disc: read-out: DIZ
Bacillus subtilis [14] = assay: Antimicrobial activity against Bacillus subtilis assessed as zone of inhibition at 100 ug/well after 24 hrs by agar well diffusion method; conditions: for zone of inhibition at 100 µg/disc: read-out: DIZ
Pseudomonas aeruginosa [15] = assay: Antimicrobial activity against Pseudomonas aeruginosa assessed as zone of inhibition at 50 ug/well after 24 hrs by agar well diffusion method
Pseudomonas aeruginosa [16] = assay: Antimicrobial activity against Pseudomonas aeruginosa assessed as zone of inhibition at 75 ug/well after 24 hrs by agar well diffusion method
Pseudomonas aeruginosa [17] = assay: Antimicrobial activity against Pseudomonas aeruginosa assessed as zone of inhibition at 100 ug/well after 24 hrs by agar well diffusion method; conditions: for zone of inhibition at 100 µg/disc: read-out: DIZ
Klebsiella pneumoniae [18] = assay: Antimicrobial activity against Klebsiella pneumoniae assessed as zone of inhibition at 50 ug/well after 24 hrs by agar well diffusion method; conditions: for zone of inhibition at 50 µg/disc: read-out: DIZ
Klebsiella pneumoniae [19] = assay: Antimicrobial activity against Klebsiella pneumoniae assessed as zone of inhibition at 75 ug/well after 24 hrs by agar well diffusion method; conditions: for zone of inhibition at 75 µg/disc: read-out: DIZ
Klebsiella pneumoniae [20] = assay: Antimicrobial activity against Klebsiella pneumoniae assessed as zone of inhibition at 100 ug/well after 24 hrs by agar well diffusion method; conditions: for zone of inhibition at 100 µg/disc: read-out: DIZ

SMILES	zone of inhibition at 50 µg/disc (Aspergillus niger [1])	zone of inhibition at 75 µg/disc (Aspergillus niger [2])	zone of inhibition at 100 µg/disc (Aspergillus niger [3])	zone of inhibition at 50 µg/disc (Penicillium chrysogenum [4])	zone of inhibition at 75 µg/disc (Penicillium chrysogenum [5])	zone of inhibition at 100 µg/disc (Penicillium chrysogenum [6])	zone of inhibition at 50 µg/disc (Staphylococcus aureus [9])	zone of inhibition at 75 µg/disc (Staphylococcus aureus [10])	zone of inhibition at 100 µg/disc (Staphylococcus aureus [11])	zone of inhibition at 50 µg/disc (Bacillus subtilis [12])	zone of inhibition at 75 µg/disc (Bacillus subtilis [13])	zone of inhibition at 100 µg/disc (Bacillus subtilis [14])	diameter of the inhibition zone (DIZ) (Pseudomonas aeruginosa [15])	diameter of the inhibition zone (DIZ) (Pseudomonas aeruginosa [16])	zone of inhibition at 100 µg/disc (Pseudomonas aeruginosa [17])	zone of inhibition at 50 µg/disc (Klebsiella pneumoniae [18])	zone of inhibition at 75 µg/disc (Klebsiella pneumoniae [19])	zone of inhibition at 100 µg/disc (Klebsiella pneumoniae [20])	diameter of the inhibition zone (DIZ) (Penicillium chrysogenum [4])	diameter of the inhibition zone (DIZ) (Staphylococcus aureus [9])	other results
CC(=O)N1CCN(c2ccc(OCC3COC(Cn4ccnc4)(c4ccc(Cl)cc4Cl)O3)cc2)CC1 (stereo not given) [KETOCONAZOLE]	31 mm	33 mm	36 mm	35 mm	36 mm	38 mm															MIC (Aspergillus niger [7]): 6.25 µg/mL (≈ 11.8 µM); MIC (Penicillium chrysogenum [8]): 12.5 µg/mL (≈ 23.5 µM)
Cc1ccc(-c2c(S(=O)(=O)NC(=O)c3ccc(Cl)s3)c(-c3ccccc3)nn2-c2ccccc2)cc1	16 mm	19 mm	23 mm		10 mm	13 mm	12 mm	15 mm	16 mm	18 mm	20 mm	24 mm	inactive	inactive	13 mm	15 mm	17 mm	20 mm	inactive		
O=C(NS(=O)(=O)C1C(c2ccccc2)=NN(c2ccccc2)C1c1ccc([N+](=O)[O-])cc1)c1ccc(Cl)s1 (stereo not given)	10 mm	14 mm	17 mm		10 mm	14 mm			10 mm	13 mm	15 mm	19 mm	inactive	inactive		12 mm	13 mm	14 mm	inactive	inactive	diameter of the inhibition zone (DIZ) (Staphylococcus aureus [10]): inactive; diameter of the inhibition zone (DIZ) (Pseudomonas aeruginosa [17]): inactive
O=C(NS(=O)(=O)c1c(-c2ccccc2)noc1-c1ccccc1)c1ccc(Cl)s1	21 mm	24 mm	28 mm	17 mm	19 mm	22 mm	23 mm	26 mm	28 mm	30 mm	32 mm	35 mm			21 mm	26 mm	29 mm	32 mm			zone of inhibition at 50 µg/disc (Pseudomonas aeruginosa [15]; read-out: DIZ): 17 mm; zone of inhibition at 75 µg/disc (Pseudomonas aeruginosa [16]; read-out: DIZ): 19 mm
Cc1ccc(C2C(S(=O)(=O)NC(=O)c3ccc(Cl)s3)C(c3ccccc3)=NN2c2ccccc2)cc1 (stereo not given)													inactive	inactive					inactive	inactive	diameter of the inhibition zone (DIZ) (Staphylococcus aureus [10]): inactive; diameter of the inhibition zone (DIZ) (Staphylococcus aureus [11]): inactive; diameter of the inhibition zone (DIZ) (Bacillus subtilis [12]): inactive; diameter of the inhibition zone (DIZ) (Bacillus subtilis [13]): inactive; diameter of the inhibition zone (DIZ) (Bacillus subtilis [14]): inactive; diameter of the inhibition zone (DIZ) (Pseudomonas aeruginosa [17]): inactive; diameter of the inhibition zone (DIZ) (Klebsiella pneumoniae [18]): inactive; diameter of the inhibition zone (DIZ) (Klebsiella pneumoniae [19]): inactive; diameter of the inhibition zone (DIZ) (Klebsiella pneumoniae [20]): inactive; diameter of the inhibition zone (DIZ) (Aspergillus niger [1]): inactive; diameter of the inhibition zone (DIZ) (Aspergillus niger [2]): inactive; diameter of the inhibition zone (DIZ) (Aspergillus niger [3]): inactive; diameter of the inhibition zone (DIZ) (Penicillium chrysogenum [5]): inactive; diameter of the inhibition zone (DIZ) (Penicillium chrysogenum [6]): inactive
